# Entries after “also recorded” stand apart in the source; their conditions may differ. Like-named read-outs stand apart in the source and are kept apart here.
# Legend:
# Neuro-2a cells = assay: Western blot of tau phosphorylation and kinases in Neuro-2a cells transfected with pCAX APP 695 and pRK5-EGFP-Tau P301L; assay type: cell-based, mouse; settings: 0.1 μM, 24 h
# Description: Images represented magnification at ×100. b Cells were transfected with pCAX APP 695 for 24 h, harvested, and cell lysates were subjected to Western blotting. c, d SH-SY5Y and Neuro-2a cells were transfected with pCAX APP 695 and/or pRK5-EGFP-Tau P301L for 24 h. Cell lysates were prepared for western blot analysis of the indicated proteins. e, f Cells were transfected with pCAX APP 695 and pRK5-EGFP-Tau P301L for 24 h and were then incubated with or without MPT0G211 or ACY-1215 (0.1 μM) for another 24 h. Cell lysates were subjected to western blot analysis using the indicated antibodies. Results are presented as the mean ± SEM from three independent experiments. **p < 0.01, ***p < 0.001 compared with the control group; ^#p < 0.05, ^##p < 0.01 compared with the indicated groups
# Cell lysates were prepared for western blot analysis of the indicated proteins. Results are presented as the mean ± SEM. *p < 0.05, **p < 0.01, and ***p < 0.001 compared with the control group; ^#p < 0.05, ^##p < 0.01, ^###p < 0.001 compared with the indicated groups
# Cells were seeded 1 day before transfection. The plasmids pCAX FLAG APP and pRK5-EGFP-Tau P301L (1 μg each) and 1 μL of TurboFect transfection reagent were mixed for 20 min at room temperature, added to the cells, and the suspensions were incubated for 24 h at 37 °C in a humidified atmosphere containing 5% CO2.
# Cells (1 × 10^6) were incubated for 10 min at 4 °C in lysis buffer (20 mM HEPES, pH 7.4, 2 mM EGTA, 50 mM β-glycerophosphate, 0.1% Triton X-100, 10% glycerol, 1 mM dithiothreitol, 1 μg/mL leupeptin, 5 μg/mL aprotinin, 1 mM phenylmethylsulfonyl fluoride, and 1 mM sodium orthovanadate), scraped from the plate, incubated on ice for 10 min, and centrifuged at 17,000 × g for 30 min at 4 °C. Protein samples (30 μg) were electrophoresed through sodium dodecyl sulfate-polyacrylamide gels (SDS-PAGE) and transferred onto a nitrocellulose membrane, which was then blocked by incubation for 30 min at room temperature with 5% fat-free milk in PBS. Immunoblotting was performed by overnight incubation at 4 °C with primary antibodies in PBS, followed by incubation for 1 h at room temperature with HRP-conjugated secondary antibodies. Bound antibodies were measured using ECL reagent (T-Pro Biotechnology, New Taipei City, Taiwan), and the membrane was placed on a photographic film. Cell lysates (30 μg) were incubated with antibodies (1 μg each) and protein A/G agarose beads overnight at 4 °C. The precipitated beads were washed three times with 1 mL of ice-cold cell lysis buffer, and bound immune complexes were separated using 8% SDS-PAGE, followed by immunoblotting using the indicated primary antibody.
# 3×Tg-AD mice = assay: Morris water maze in 3×Tg-AD mice; assay type: in vivo, mouse; settings: 50 mg/kg oral daily for 3 months
# Description: Red arrowheads indicate phosphorylated-tau proteins. Scale bar = 25 μm. Data represent the mean ± SEM. *p < 0.05, **p < 0.01, and ***p < 0.001 compared with the basal or control group; ^#p < 0.05, ^##p < 0.01, and ^###p < 0.001 compared with the vehicle-treated group
# Six-month-old female B6;129-Psen1^tm1Mpm Tg(APPSwe,tauP301L)1Lfa/Mmjax (3xTg-AD) mice and control B6129SF2/J mice were obtained from the Jackson Laboratory (Bar Harbor, ME, USA), orally administered MPT0G211 (50 mg/kg) or memantine (30 mg/kg, dissolved in water) once daily for 3 months, and then subjected to Morris water maze. The assay that using 3xTg-AD mice was entrusted to carry out by Development Center for Biotechnology (New Taipei City, Taiwan).
# The water maze was constructed as a white circular pool filled with water, and the water temperature was maintained at 23–27 °C. A white platform was established and submerged 5 cm below the surface of the water and styrofoam beads were added to make the platform invisible. Animals were trained by permitting them to stay for 10 s upon reaching the platform. […] Training was performed twice daily and 4 days during 1 week. Test trials were repeated twice with a 20 min interval for each animal. Scopolamine (1 mg/kg) was injected intraperitoneally 90 min before the test trial to induce AD-like features, except for the control group.
# [1] = BBB crossing assay: brain and plasma concentrations by LC-MS/MS after oral administration; assay type: in vivo, rat; settings: rats
# Description: Successful crossing of the BBB by therapeutic drugs is essential in the treatment of CNS disorders. To explore whether MPT0G211 can penetrate into the brain, single oral administration of MPT0G211 was performed, and plasma and brain samples were collected and analyzed by liquid chromatography tandem mass spectrometry (LC-MS/MS) to obtain brain/plasma ratios.
# This assay was performed by Eurofins Scientific. Briefly, SD rats weighing 200–300 g were provided by BioLasco Taiwan (under the license of Charles River Laboratories). Rats were sedated under general inhalant anesthesia (3% isoflurane) for blood collection using cardiac puncture 60 and 180 min after oral administration of the test compound. Aliquots of blood were gently mixed with lithium heparin, kept on ice, and centrifuged at 2500 × g for 15 min at 4 °C. The plasma was then harvested and stored at −70 °C. After blood sampling, rats were decapitated, and the entire brain was quickly removed and rinsed with cold saline (0.9% NaCl, w/v). The surface vasculature was ruptured, blotted with dry gauze, weighed, and stored on ice within 1 h of collection. Each brain was homogenized in 3 mL cold PBS, pH 7.4, for 10 s on ice, and centrifuged at 5400 × g for 15 min at 4 °C. Supernatants were precipitated using acetonitrile precipitation and subjected to high-performance LC-MS/MS.
smiles,measurement,setting,value
"O=C(NO)c1ccc(CNc2cccc3cccnc23)cc1 [MPT0G211, N-hydroxy-4-((quinolin-8-ylamino)methyl)benzamide]",phosphorylation of tau Ser396,Neuro-2a cells; Neuro-2a transfected hAPP 695 + hTau P301L,significantly inhibited; also recorded: significantly attenuated
same,"CDK5, p25, or p35 expression",Neuro-2a cells; Neuro-2a transfected,no marked changes
same,phospho-GSK3β on Ser9,Neuro-2a cells; Neuro-2a transfected,significant phospho-GSK3β increases
same,phospho-GSK3β on Ser216,Neuro-2a cells; Neuro-2a transfected,a decrease
same,phosphorylation of tau Ser404,Neuro-2a cells; Neuro-2a transfected,significantly attenuated
same,memory impairment (Morris water maze escape latency),3×Tg-AD mice,significantly ameliorated
same,Kp at 3 h,"[1]; SD, rat, brain/plasma, PO 50 mg/kg, 3 h, read-out: Brain/plasma ratio",0.9
same,concentration at 1 h,"[1]; SD, rat, brain, PO 50 mg/kg, 1 h, read-out: Brain concentration",56.9 ± 3.4 ng/g
same,concentration at 3 h,"[1]; SD, rat, brain, PO 50 mg/kg, 3 h, read-out: Brain concentration",11 ± 0.1 ng/g
same,Kp at 1 h,"[1]; SD, rat, in vivo, PO 50 mg/kg, 1 h, read-out: Brain/plasma ratio",1.01
same,concentration at 1 h,"[1]; SD, rat, plasma, PO 50 mg/kg, 1 h, read-out: Plasma concentration",56.4 ± 4 ng/g
same,concentration at 3 h,"[1]; SD, rat, plasma, PO 50 mg/kg, 3 h, read-out: Plasma concentration",12.2 ± 1.4 ng/g
same,BBB penetration,[1]; single oral administration,can penetrate the BBB
same,time for which concentrations were detected in the brain,[1]; single oral administration,at least 3 h
